{"source": "patent US20070238793A1", "about": "“Structural carotenoid analogs or derivatives for the modulation of systemic and/or target organ redox status” (priority 2005, published 2007)", "key": {"[1]": {"test_system": "superoxide anion signal from PMA-stimulated human polymorphonuclear leukocytes (PMNs)", "assay": "Direct superoxide anion scavenging by EPR spectroscopy (DEPMPO spin trap) in PMA-stimulated isolated human neutrophils", "format": "cell-based", "settings": "millimolar range, water", "description": "Leukocyte Isolation and Preparation. Human polymorphonuclear leukocytes (PMNs) were isolated from freshly sampled venous blood of a single volunteer by Percoll density gradient centrifugation as described previously. Briefly, each 10 mL of whole blood was mixed with 0.8 mL of 0.1 M EDTA and 25 mL of saline. The diluted blood was then layered over 9 mL of Percoll at a specific density of 1.080 g/mL. After centrifugation at 400×g for 20 min at 20° C., the plasma, mononuclear cell, and Percoll layers were removed. Erythrocytes were subsequently lysed by addition of 18 mL of ice-cold water for 30 s, followed by 2 mL of 10×PIPES buffer (25 mM PIPES, 110 mM NaCl, and 5 mM KCl, titrated to pH 7.4 with NaOH). […] Afterward, PMNs were counted by light microscopy on a hemocytometer. […]\nEPR Measurements. […] The microwave frequency was measured with a Model 575 microwave counter (EIP Microwave, Inc., San Jose, Calif.). […]\nInstrument settings used in the spin-trapping experiments were as follows: modulation amplitude, 0.32 G; time constant, 0.16 s; scan time, 60 s; modulation frequency, 100 kHz; microwave power, 20 milliwatts; and microwave frequency, 9.76 GHz. The samples were placed in a quartz EPR flat cell, and spectra were recorded. The component signals in the spectra were identified and quantified as reported previously."}, "[2]": {"test_system": "mouse heart (myocardium) redox status", "assay": "Whole-body time-course PEDRI of TEMPONE nitroxide decay in the myocardial region of treated mice", "format": "in vivo", "settings": "10 mg/kg daily I.V. for 4 days, TEMPONE probe", "text": "Proton electron double resonance imaging (PEDRI) is a recently developed low-field double magnetic resonance technique (Lurie et al. 2002). The technique uses the Overhauser effect to image the distribution of free radicals in biological samples. Of particular interest is that the technique can be extended to whole animals, allowing systemic redox state analysis as well as individual target organ analysis after therapeutic treatment. The in vivo application of the technique requires a balance between the electron paramagnetic resonance (EPR) irradiation frequency and the magnetic field applied: sufficiently low magnetic field must be utilized that allows penetration of the whole animal, while at the same time limiting nonresonant power deposition in the animal. […]\nAfter the mice were placed in the PEDRI resonator, a bolus injection of 0.55-0.6 mL (normalized to the body weight of the individual animal) of 100 mM TEMPONE solution in PBS was given over 50-55 s through the tail vein. A series of time-course PEDRI measurements were then acquired every 10-15 s after the injection of the nitroxide probe solution, until the image intensity reached a minimum (i.e., no nitroxide signal could be detected). […]"}}}
{"compound": "3,3′-Diphosphoryloxy-β,ε-carotene sodium salt [compound 9]", "values": [{"measurement": "aqueous superoxide scavenging profile (in words)", "setting": "[1]", "result": "slightly increased scavenging"}]}
{"compound": "CC1=C(/C=C/C(C)=C/C=C/C(C)=C/C=C/C=C(C)/C=C/C=C(C)/C=C/C2=C(C)C(=O)C(OC(=O)CCC(=O)O)CC2(C)C)C(C)(C)CC(OC(=O)CCC(=O)O)C1=O", "note": "(stereo not drawn) [Cardax™, disodium disuccinate derivative of synthetic astaxanthin]", "values": [{"measurement": "rate of nitroxide reduction in the mouse heart compared to untreated control animals", "setting": "[2]", "result": "slower mean rate of nitroxide reduction"}, {"measurement": "half-time (t) for the decay of the nitroxide signal intensity, myocardial region", "setting": "[2]; mean±SEM, n=4, untreated 0.49±0.08", "result": "0.99 ± 0.14", "unit": "min"}]}
